Measured values taken from patent US6737383B1, “Herbicidal oxadiazolidines” (priority 1999, dated 2004).

Tests used:
blackgrass = assay: Test B pre/postemergence blackgrass; type: in vivo, Alopecurus myosuroides
Outline: (§1)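 Herbicidal effect was estimated by eye on a ten-point control scale after plants spent twelve to sixteen days in a greenhouse following soil or foliar treatment. Foliar sprays targeted plants at one to four leaves; all doses were formulated in a non-phytotoxic solvent with surfactant.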

surinam grass = assay: Test B pre/postemergence surinam grass; type: in vivo, Brachiaria decumbens
Outline: as §1

cocklebur = assay: Test B pre/postemergence cocklebur; type: in vivo, Xanthium strumarium
Outline: as §1

corn = assay: Test B pre/postemergence corn; type: in vivo, Zea mays
Outline: as §1

crabgrass = assay: Test B pre/postemergence crabgrass; type: in vivo, Digitaria sanguinalis
Outline: as §1

pigweed = assay: Test B pre/postemergence pigweed; type: in vivo, Amaranthus retroflexus
Outline: as §1

rape = assay: Test B pre/postemergence rape; type: in vivo, Brassica napus
Outline: as §1

soybean = assay: Test B pre/postemergence soybean; type: in vivo, Glycine max
Outline: as §1

sugar beet = assay: Test B pre/postemergence sugar beet; type: in vivo, Beta vulgaris
Outline: as §1

velvetleaf = assay: Test B pre/postemergence velvetleaf; type: in vivo, Abutilon theophrasti
Outline: as §1

wheat = assay: Test B pre/postemergence wheat; type: in vivo, Triticum aestivum
Outline: as §1

wild oat = assay: Test B pre/postemergence wild oat; type: in vivo, Avena fatua
Outline: as §1

purple nutsedge = assay: Test B pre/postemergence purple nutsedge; type: in vivo, Cyperus rotundus
Outline: as §1

smallflower flatsedge = assay: Test B flood test smallflower flatsedge; type: in vivo, Cyperus difformis
Outline: (§2)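 Plants were grown to the 2-leaf stage before treatment with test chemical, then held in a greenhouse for twelve to sixteen days. Injury was visually rated against untreated controls on a 0–10 scale, where 0 is no effect and 10 is complete control.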

bamyardgrass = assay: Test B flood test barnyardgrass; type: in vivo, Echinochloa crus-galli
Outline: as §2

[1] = Postemergence, Rate 250 g/ha, scale 0 to 10
[2] = Postemergence, Rate 500 g/ha, scale of 0 to 10 where 0 is no effect and 10 is complete control
[3] = Preemergence, Rate 62 g/ha, scale of 0 to 10 where 0 is no effect and 10 is complete control
[4] = Preemergence, Rate 125 g/ha, scale of 0 to 10 where 0 is no effect and 10 is complete control
[5] = Preemergence, Rate 250 g/ha, scale 0 to 10, 0 is no effect, 10 is complete control
[6] = Preemergence, Rate 500 g/ha, scale 0 to 10, 0 is no effect, 10 is complete control
[7] = Rate 62 g/ha, Postemergence, scale 0 to 10, 0 no effect, 10 complete control
[8] = Rate 125 g/ha, Postemergence, scale 0 to 10, 0 is no effect, 10 is complete control
[9] = Rate 62 g/ha, flood test species, Pre-emergence, visual evaluation after twelve to sixteen days
[10] = Rate 125 g/ha, under heading Pre-emergence, flood test species, visual evaluation after twelve to sixteen days
[11] = Rate 250 g/ha, Pre-emergence (flood test species), scale 0 to 10, 0 is no effect, 10 is complete control
[12] = Rate 500 g/ha, Pre-emergence, flood test species, scale 0 to 10 (0 no effect, 10 complete control)

COC(C)n1c(=O)on(C(=O)N(c2ccc(F)cc2)C(C)C)c1=O (stereo not shown) [Compound 439]
0: Blackgrass plant response rating (blackgrass; [1]) | Blackgrass plant response rating (blackgrass; [2]) | Plant response rating, Blackgrass (blackgrass; [3]) | Plant response rating, Blackgrass (blackgrass; [4]) | Blackgrass plant response rating (blackgrass; [5]) | Blackgrass plant response rating (blackgrass; [6]) | Blackgrass plant response rating (blackgrass; [7]) | Blackgrass plant response rating (blackgrass; [8]) | B. signalgrass plant response rating (surinam grass; Postemergence, Rate 250 g/ha, scale 0 to 10, 0 no effect, 10 complete control) | B. signalgrass plant response rating (surinam grass; [2]) | Plant response rating, B. signalgrass (surinam grass; [3]) | Plant response rating, B. signalgrass (surinam grass; [4]) | B. signalgrass plant response rating (surinam grass; [5]) | B. signalgrass plant response rating (surinam grass; [6]) | B. signalgrass plant response rating (surinam grass; [7]) | B. signalgrass plant response rating (surinam grass; [8]) | Cocklebur plant response rating (cocklebur; [1]) | Cocklebur plant response rating (cocklebur; [2]) | Plant response rating, Cocklebur (cocklebur; [3]) | Plant response rating, Cocklebur (cocklebur; [4]) | Cocklebur plant response rating (cocklebur; [5]) | Cocklebur plant response rating (cocklebur; [6]) | Cocklebur plant response rating (cocklebur; [7]) | Cocklebur plant response rating (cocklebur; [8]) | Corn plant response rating (corn; [1]) | Corn plant response rating (corn; [2]) | Plant response rating, Corn (corn; [3]) | Plant response rating, Corn (corn; [4]) | Corn plant response rating (corn; [5]) | Corn plant response rating (corn; [6]) | Corn plant response rating (corn; [7]) | Corn plant response rating (corn; [8]) | Crabgrass plant response rating (crabgrass; [1]) | Crabgrass plant response rating (crabgrass; [2]) | Plant response rating, Crabgrass (crabgrass; [3]) | Plant response rating, Crabgrass (crabgrass; [4]) | Crabgrass plant response rating (crabgrass; [5]) | Crabgrass plant response rating (crabgrass; [6]) | Crabgrass plant response rating (crabgrass; [7]) | Crabgrass plant response rating (crabgrass; [8]) | Redroot pigweed plant response rating (pigweed; [1]) | Redroot pigweed plant response rating (pigweed; [2]) | Plant response rating, Redroot pigweed (pigweed; [3]) | Plant response rating, Redroot pigweed (pigweed; [4]) | Redroot pigweed plant response rating (pigweed; [5]) | Redroot pigweed plant response rating (pigweed; [6]) | Redroot pigweed plant response rating (pigweed; [7]) | Redroot pigweed plant response rating (pigweed; [8]) | Rape plant response rating (rape; [1]) | Rape plant response rating (rape; [2]) | Plant response rating, Rape (rape; [3]) | Plant response rating, Rape (rape; [4]) | Rape plant response rating (rape; [5]) | Rape plant response rating (rape; [6]) | Rape plant response rating (rape; [7]) | Rape plant response rating (rape; [8]) | Soybean plant response rating (soybean; [1]) | Soybean plant response rating (soybean; [2]) | Plant response rating, Soybean (soybean; [3]) | Plant response rating, Soybean (soybean; [4]) | Soybean plant response rating (soybean; [5]) | Soybean plant response rating (soybean; [6]) | Soybean plant response rating (soybean; [7]) | Soybean plant response rating (soybean; [8]) | Sugarbeets plant response rating (sugar beet; [1]) | Sugarbeets plant response rating (sugar beet; [2]) | Plant response rating, Sugarbeets (sugar beet; [3]) | Plant response rating, Sugarbeets (sugar beet; [4]) | Sugarbeets plant response rating (sugar beet; [5]) | Sugarbeets plant response rating (sugar beet; [6]) | Sugarbeets plant response rating (sugar beet; [7]) | Sugarbeets plant response rating (sugar beet; [8]) | Velvetleaf plant response rating (velvetleaf; [1]) | Velvetleaf plant response rating (velvetleaf; [2]) | Plant response rating, Velvetleaf (velvetleaf; [3]) | Plant response rating, Velvetleaf (velvetleaf; [4]) | Velvetleaf plant response rating (velvetleaf; [5]) | Velvetleaf plant response rating (velvetleaf; [6]) | Velvetleaf plant response rating (velvetleaf; [7]) | Velvetleaf plant response rating (velvetleaf; [8]) | Wheat plant response rating (wheat; [1]) | Wheat plant response rating (wheat; [2]) | Plant response rating, Wheat (wheat; [3]) | Plant response rating, Wheat (wheat; [4]) | Wheat plant response rating (wheat; [5]) | Wheat plant response rating (wheat; [6]) | Wheat plant response rating (wheat; [7]) | Wheat plant response rating (wheat; [8]) | Wild oats plant response rating (wild oat; [1]) | Wild oats plant response rating (wild oat; [2]) | Plant response rating, Wild oats (wild oat; [3]) | Plant response rating, Wild oats (wild oat; [4]) | Wild oats plant response rating (wild oat; [5]) | Wild oats plant response rating (wild oat; [6]) | Wild oats plant response rating (wild oat; [7]) | Wild oats plant response rating (wild oat; [8]) | Nutsedge plant response rating (purple nutsedge; [1]) | Nutsedge plant response rating (purple nutsedge; [2]) | Plant response rating, Nutsedge (purple nutsedge; [3]) | Plant response rating, Nutsedge (purple nutsedge; [4]) | Nutsedge plant response rating (purple nutsedge; [5]) | Nutsedge plant response rating (purple nutsedge; [6]) | Nutsedge plant response rating (purple nutsedge; [7]) | Nutsedge plant response rating (purple nutsedge; [8]) | Plant response rating, S. Flatsedge (0 to 10 scale, 0 is no effect, 10 is complete control) (smallflower flatsedge; [9]) | S. Flatsedge plant response rating (0 to 10 scale, 0 is no effect, 10 is complete control) (smallflower flatsedge; [10]) | S. Flatsedge plant response rating (smallflower flatsedge; [11]) | S. Flatsedge plant response rating (smallflower flatsedge; [12]) | Plant response rating, Barnyardgrass (0 to 10 scale, 0 is no effect, 10 is complete control) (bamyardgrass; [9]) | Barnyardgrass plant response rating (0 to 10 scale, 0 is no effect, 10 is complete control) (bamyardgrass; [10]) | Barnyardgrass plant response rating (bamyardgrass; [11]) | Barnyardgrass plant response rating (bamyardgrass; [12])
